Data reported in US20240059710A1, “KRAS G12D Inhibitors” (Jacobio Pharmaceuticals Co., Ltd., priority 2020, published 2024).

What was measured:
AsPC-1 = experiment: Cell growth inhibition assay (AsPC-1); type: cell-based; settings: Homo sapiens, ASPC1, 144 h; AsPC-1, 6 days incubation, CellTiter-Glo
Method: (§1) 4. Cell Growth Inhibition Assay
AsPC-1 cultured in RPMI-1640 medium (Gibco) containing 10% fetal bovine serum (Gibco). Cells in culture medium were plated in 96-well plates at a concentration of 1000 cells/well ([…]) and allowed to attach overnight.
(§2) The next day, compounds were diluted in culture medium and added to the plates. After 6 days incubation in a 37° C./5% CO2 cell incubator, the cell viability was detected by CellTiter-Glo® Luminescent Cell Viability Assay kit (Promega). Luminescent signals were read on Tecan Spark multimode microplate reader and analyzed using a 4-parameter logistic model to calculate IC50 values.

[1] = target: T1, GDP-loaded HIS-KRAS (G12D, aa 1-169) (Homo sapiens, UniProt P01116, G12D); experiment: SOS1 catalyzed nucleotide exchange assay; type: biochemical; settings: SOS1 ExD, TR-FRET, 4 hours at 25° C.
T1 construct: GDP-loaded HIS-KRAS (G12D, aa 1-169)
T1 sequence (P01116 1-169 isoform P01116-2 G12D): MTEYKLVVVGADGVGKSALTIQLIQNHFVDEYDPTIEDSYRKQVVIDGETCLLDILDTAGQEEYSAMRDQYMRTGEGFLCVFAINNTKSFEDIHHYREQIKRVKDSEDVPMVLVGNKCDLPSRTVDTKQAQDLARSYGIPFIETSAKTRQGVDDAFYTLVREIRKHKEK
Method: 1. SOS1 Catalyzed Nucleotide Exchange Assay
GDP-loaded HIS-KRAS (G12D, aa 1-169) was pre-incubated with a compound in the presence of 10 nM GDP in a 384-well plate (Greiner) for 15 min, then purified SOS1 ExD (Flag tag, aa 564-1049), BODIPY™ FL GTP (Invitrogen) and MAb (monoclonal antibody) Anti 6HIS-Tb cryptate Gold (Cisbio) were added to the assay wells (Final concentration: 1.5 nM GDP-loaded HIS-KRAS (G12D), 5 nM GDP, 0.5 μM SOS1 ExD, 80 nM BODIPY™ FL GTP, 52.5 ng/mL MAb Anti 6HIS-Tb cryptate Gold) and incubated for 4 hours at 25° C. Wells containing same percent of DMSO served as vehicle control, and wells without KRAS served as low control. TR-FRET signals were read on Tecan Spark multimode microplate reader. The parameters were F486: Excitation 340 nm, Emission 486 nm, Lag time 100 μs, Integration time 200 μs; F515: Excitation 340 nm, Emission 515 nm, Lag time 100 μs, Integration time 200 μs. TR-FRET ratios for each individual wells were calculated by equation: TR-FRET ratio=(Signal F515/Signal F486)*10000. The percent of activation of compounds treated wells were normalized between vehicle control and low control (% Activation=(TR-FRET ratioCompound treated−TR-FRET ratioLow control)/(TR-FRET ratioVehicle control−TR-FRET ratioLow control)*100%). Then the data were analyzed either by fitting a 4-parameter logistic model or by Excel to calculate IC50 values.

[2] = tested on: AGS cells expressing KRAS G12D; experiment: Phospho-ERK1/2(THR202/TYR204) HTRF assay; type: cell-based; settings: Homo sapiens, 2 hours incubation, read-out: AGS p-ERK IC50
Method: AGS cells expressing KRAS G12D were cultured in F12K medium (Gibco) containing 10% fetal bovine serum (Gibco). The AGS cells in culture medium were seeded in 96-well plates at a concentration of 40,000 cells/well and then put in a 37° C./5% CO2 cell incubator to incubate overnight. The next day, culture medium was removed and the compound diluted in assay medium (F12K, 0.1% FBS) was added in each well. After 2 hours incubation in a 37° C./5% CO2 cell incubator, the assay medium in 96-well plates was removed, then 50 μL of 1× blocking reagent-supplemented lysis buffer (Cisbio) was added and the plates were incubated at 25° C. for 45 min with shaking. 10 μL of cell lysates from the 96-well plates were transferred to a 384-well plate (Greiner) containing 2.5 μL/well HTRF® pre-mixed antibodies (Cisbio 64AERPEH). Incubate 4 hours at 25° C. and then read HTRF signals on Tecan Spark multimode microplate reader. The data were analyzed using a 4-parameter logistic model to calculate IC50 values.

AGS = experiment: Cell growth inhibition assay (AGS); type: cell-based; settings: Homo sapiens, 144 h, 6 days incubation, CellTiter-Glo
Method: as §1
AGS cultured in F12K medium (Gibco) containing 10% fetal bovine serum (Gibco). Cells in culture medium were plated in 96-well plates at a concentration of 500 cells/well ([…]) and allowed to attach overnight.
as §2

[3] = target: T2, GppNp-loaded HIS-KRAS (G12D, aa 1-169) / cRAF RBD (Homo sapiens, UniProt P01116, G12D); experiment: GTP-KRAS and cRAF interaction assay; type: binding; settings: HTRF, 2 hours at 25° C.
T2 construct: GppNp-loaded HIS-KRAS (G12D, aa 1-169)
T2 sequence (P01116 1-169 isoform P01116-2 G12D): as above
Method: 2. GTP-KRAS and cRAF Interaction Assay
GppNp-loaded HIS-KRAS (G12D, aa 1-169) was pre-incubated with a compound in the presence of 200 µM GTP in a 384-well plate (Greiner) for 15 min, then cRAF RBD (GST tag, aa 50-132, CreativeBioMart), MAb Anti GST-d2 (Cisbio) and MAb Anti 6HIS-Tb cryptate Gold (Cisbio) were added to the assay wells (Final concentration: 2.0 nM GppNp-loaded HIS-KRAS (G12D), 100 μM GTP, 35 nM cRAF RBD, 1 μg/mL MAb Anti GST-d2, 52.5 ng/mL MAb Anti 6HIS-Tb cryptate Gold) and incubated for 2 hours at 25° C. Wells containing same percent of DMSO served as vehicle control, and wells without KRAS served as low control. HTRF signals were read on Tecan Spark multimode microplate reader and HTRF ratios were calculated under manufacturer's instructions. The percent of activation of compounds treated wells were normalized between vehicle control and low control (% Activation=(HTRF ratioCompound treated−HTRF ratioLow control)/(HTRF ratioVehicle control−HTRF ratioLow control)*100). Then the data were analyzed either by fitting a 4-parameter logistic model or by Excel to calculate IC50 values.

SMILES | IC50 (AsPC-1) [nM] | IC50 [1] [nM] | IC50 [2] [nM] | IC50 (AGS) [nM] | IC50 [3] [nM]
C#Cc1cccc2cc(O)cc(-c3ccc4c(N5CC6CCC(C5)N6)nc(OCC5(CN6CCO[C@H](C)C6)CC5)nc4c3F)c12 [Compound 68] | 7.8 | 14.4 | 4.83 | 3.26 | 131
C#Cc1c(F)ccc2cc(O)cc(-c3c(C4CC4)cc4c(N5CC6CCC(C5)N6)nc(OC[C@@]56CCCN5C[C@H](F)C6)nc4c3F)c12 [Compound 71] | 723 | 60 | 9.31 | 205 | 73.2
C#Cc1cccc2cc(O)cc(-c3ccc4c(N5CC6CCC(C5)N6)nc(OC[C@@]56CCCN5C[C@H](F)C6)nc4c3F)c12 [Compound 73] | 42 | 3.02 | 0.757 | 7 | 37
C#Cc1c(F)ccc2cc(O)cc(-c3ccc4c(N5CC6CCC(C5)N6)nc(OCC5(CN6CCCC(F)C6)CC5)nc4c3F)c12 (stereo not shown) [Compound 74] | 21.3 | 10 | 12.4 | 4.41 | 39.8
C#Cc1cccc2cc(O)cc(-c3cc4nc(OC[C@@]56CCCN5C[C@H](F)C6)nc(N5CC6CCC(C5)N6)c4cc3C)c12 [Compound 75] | 62.3 | 9.26 | 14.6 | 5.64 | 84.2
C#Cc1c(F)ccc2cc(O)cc(-c3ccc4c(N5CC6CCC(C5)N6)nc(OCC5(CN6CCC(O)CC6)CC5)nc4c3F)c12 [Compound 76] | 671 | 4.33 | 8.3 | 72.1 | 64.8
C#Cc1c(F)ccc2cc(O)cc(-c3ccc4c(N5CC6CCC(C5)N6)nc(OCC5(CN6CCC(C(=O)O)CC6)CC5)nc4c3F)c12 [Compound 77] | > 10000 | 5.11 | 173 | 1180 | 74.1
C#Cc1cccc2cc(O)cc(-c3ccc4c(N5CC6CCC(C5)N6)nc(OCC5(CN6CCSCC6)CC5)nc4c3F)c12 [Compound 78] | 30.3 | 8.8 | 31.6 | 4.04 | 99.8
C#Cc1cccc2cc(O)cc(-c3cc4nc(OC[C@@]56CCCN5C[C@H](F)C6)nc(N5CC6CCC(C5)N6)c4cc3F)c12 [Compound 79] | 109 | 4.81 | 6.66 | 7.75 | 130
C#Cc1cccc2cc(O)cc(-c3ccc4c(N5CC6CCC(C5)N6)nc(OCC5(CN6CCO[C@@H](C)C6)CC5)nc4c3F)c12 [Compound 80] | 24.1 | 3.76 | 3.63 | 5.26 | 69.4
C#Cc1cccc2cc(O)cc(-c3ccc4c(N5CC6CCC(C5)N6)nc(OC[C@@]56CCCN5C[C@H](F)C6)nc4c3Cl)c12 [Compound 81] | 153 | 9.49 | 13.9 | 16.2 | 225
